Tests used:
Type in all cases: physicochemical
[1] = Measurement of the critical micellar concentration (CMC) by surface tension (tensiometer, water/SA-ambient air interface); conditions: permuted water; for CMC: room temperature of 20° C.; for Surface tension: water/SA-ambient air interface, 20° C., Table II beside CMC
Procedure: Measurement of the critical micellar concentration (CMC) of the sulfobetaines of examples 2, 3, 5, and 7.
Preparation of solutions for the measurements of CMC values.
The method is a standard method using solutions of initial surfactant (SA) concentration of 0.5 g/l, in freshly permuted water, at room temperature of 20° C. The SA-water mixture is stirred up to complete dissolution and then a series of titrated solutions are obtained by successive dilution, by withdrawing a determined volume of mother-solution, brought each time to a standard volume i.e. 1 ml+39 ml; 2 ml+38 ml; 3 ml+37 ml; . . . The various solutions are stirred for 30 minutes and maintained at rest for 2 hours. The surface tensions are measured by means of a tensiometer Tensiomat n^3 Prolabo whose operating principle consists of measuring the pullout load of a stirrup piece placed at the water/SA-ambient air interface, expressed in millinewton/meter.
The CMC value corresponds to the inflection point of the obtained two straight lines.

[2] = Solubility in water at 20° C.
Procedure: Solubility in water at 20° C. of the sulfobetaines of examples 2, 3, 5 and 7 (Table I).

[3] = Micro-emulsion test: determination of optimum solubility and optimum salt content parameters; conditions: pentanol as cosurfactant, dodecane as oil; brine NaCl/CaCl2 9/1
Text: Micro-emulsion test: Determination of optimum solubility and optimum salt content parameters.
The surface-active properties have been determined by analysis of the behaviour of sulfobetaines in a mixture defined according to standard conditions:
brine (NaCl, CaCl2 with (NaCl/CaCl2)=(9/1): 4.5 g
Depending on the salt content of the brine (0-200 g/l), three mono-, di- or triphasic systems can be observed when the product has surface-active properties:
(1) the behavior referred to as Windsor I, wherein an equilibrium is observed between oil phase and με phase*.
(2) a behavior referred to as Windsor II, wherein an equilibrium is observed between με phase and aqueous phase.
(3) and, finally, a so-called Windsor III systems, wherein the intermediary με phase is in equilibrium with a supernatant oil phase and an aqueous phase.
The latter system has the pecularity of very low interfacial tensions. […] The optimum solubility and optimum salinity parameters, corresponding to equal amounts of water and oil in the micro-emulsion, are defined in this system.
By way of example, for sulfobetaine: [drawing 25] the following parameters have been obtained with pentanol as cosurfactant and dodecane as oil: […]

Molecule `CCCCCCCCCCCCCCCCCC[N+](C)(C)CCCN(CCCCS(=O)(=O)[O-])C(C)=O` [Example 7, 5-acetyl-5-aza-8 (N,N-dimethylstearylammonium)octane sulfonate] has a CMC [1] of 0.0028 g/L, a Surface tension [1] of 39 mN/m and a solubility [2] of 4 mg/mL.

With `CCCCCCCCCCCCCCCCCC[N+](C)(C)CCN(CCCS(=O)(=O)[O-])C(C)=O` [drawing 25] the optimum salinity parameter [3] was 30 g/L and the optimum solubility parameter [3] was 55%.

Work on `CCCCCCCCCCCC[N+](C)(C)CCN(CCCS(=O)(=O)[O-])C(C)=O` [Example 2, 4-acetyl-4-aza-6(N,N-dimethyl-laurylammonium)hexane sulfonate] yielded a CMC [1] of 0.04 g/L, a Surface tension [1] of 54 mN/m and a solubility [2] of 300 mg/mL.

Work on `CCCCCCCCCCCCCCCCCC[N+](C)(C)CCN(CCCS(=O)(=O)[O-])C(C)=O` [Example 3, 4-acetyl-4-aza-6 (N,N-dimethyl stearylammonium) hexane sulfonate] yielded a CMC [1] of 0.01 g/L, a Surface tension [1] of 35 mN/m and a solubility [2] of 80 mg/mL.

For `CCCCCCCCCCCC[N+](C)(C)CCCN(CCCS(=O)(=O)[O-])C(C)=O` [Example 5, 4-acetyl-4-aza-7 (N,N-dimethyl laurylammonium)heptane sulfonate], the CMC [1] was 0.15 g/L, the Surface tension [1] was 49 mN/m and the solubility [2] was 300 mg/mL.
